# In patent US4689326A, “Process for controlling hyperlipidemia” (Research Corporation, priority 1985, dated 1987):
# Where two headings read alike, the source gives them in different places.
# How the values were obtained:
# Type in all cases: in vivo, CF1 male mice
# serum cholesterol [1] = assay: Testing of Normal Mice: serum cholesterol (modified Liebermann-Burchard), Example 7; settings: Mus musculus; for response vs control in vivo at 20 mg/kg: 20 mg/kg/day ip; for response vs control in vivo at 150 mg/kg: 150 mg/kg/day ip
# Description: (§1) Suspensions of Compounds Nos. 1-9 were prepared wherein the compounds were suspended in an aqueous 1% carboxymethylcelluose solution, homogenized and administered to CF1 male mice, each weighing approximately 25 grams, intraperitoneally on a daily basis for 16 days. The dosage was, with the exception of one compound, 20 milligrams of the active compound per kilogram of mouse weight per day. On days 9 and 16 blood was obtained by tail vein bleeding. The blood serum was separated by centrifugation for three minutes. Serum cholesterol levels were determined by a modification of the Liebermann-Burchard reaction. Serum was also collected on day 16 and the triglycerides content was determined by a commercial kit, BioDynamics/bnc Single Vile Colorimetric Method 348201. Each compound was tested on a group of six mice.
# (§2) In addition to the above-described treated mice, untreated control groups of six mice were similarly tested on days 9 and 14 or 16 to determine their serum cholesterol and triglycerides blood levels. Table 5 reports the percent control, based on the serum cholesterol and serum triglyceride levels of the treated mice compared to the untreated controls. Table 5 also includes the standard deviation indicating the level of confidence of these numbers.
# (§3) Example 7 was repeated substituting clofibrate, a compound used in the prior art to lower serum cholesterol and serum triglyceride levels. The clofibrate was administered as a suspension in an aqueous 1% solution of carboxymethylcellulose. However, unlike the compounds of the present invention which were administered at a dosage of 20 mg/kg day, ip, this compound was administered at the elevated concentration of 150 mg/kg day, ip.
# serum triglycerides [2] = assay: Testing of Normal Mice: serum triglycerides (BioDynamics kit), Example 7; settings: Mus musculus, 384 h, day 16, ± SD; for response vs control in vivo at 20 mg/kg: 20 mg/kg/day ip
# Description: as §1, §2, §3
# serum triglycerides [3] = assay: Hypolipidemic Activity of Compounds 1 and 10-33, Example 13: serum triglycerides; settings: Mus musculus, 384 h; 20 mg/kg/day ip, day 16, ± SD; read-out: Serum Triglyceride as a function of control, 16 Day
# Description: (§4) Compounds 1 and 10-33, identified below in Table 11, were suspended by homogenation in a 1% aqueous solution of carboxymethylcellulose (CMC) such that a 0.2 ml dosage supplied a concentration of 20 mg/kg of the active compounds. The suspending agent, the 1% aqueous solution of CMC, was utilized as a control, applied in the same quantity, 0.2 ml. CF1 male mice, maintained in groups of six, were fed Wayne Blox [trademark] laboratory animal show ad libitum with water. The mice, which each weighed approximately 25 g, were administered the drugs interperitoneally at approximately the same time. On days 9 and 16 approximately […] of blood was taken from each of the animals by tail bleeding. After centrifugation to obtain serum, 25 microliter samples were assayed for total cholesterol utilizing the method of Ness et al. Serum triglyicerides were assayed, using a commercially available BioDynamics/bmc triglyiceride kit, on blood collected on the 16th day. By comparison to standards the milligram percent of cholesterol and milligram per deciliter concentration of triglicerides were calculated. Treated values were expressed as a percent of the level of the control animals plus or minus the standard deviation. The "T" values were obtained using the Student's "t" test.
# serum cholesterol [4] = assay: Hypolipidemic Activity of Compounds 1 and 10-33, Example 13: serum cholesterol; settings: Mus musculus, 20 mg/kg/day ip
# Description: as §4
# [5] = 216 h, day 9, ± SD, read-out: Serum Cholesterol Control, % Day 9
# [6] = 384 h, day 16, ± SD, read-out: Serum Cholesterol Control, % Day 16
# [7] = 216 h, day 9, ± SD, read-out: Serum Cholesterol as a function of control, 9 Day
# [8] = 384 h, day 16, ± SD, read-out: Serum Cholesterol as a function of control, 16 Day
Structure (SMILES),response vs control in vivo at 20 mg/kg (serum triglycerides [3]) [%],response vs control in vivo at 20 mg/kg (serum cholesterol [4]; [7]) [%],response vs control in vivo at 20 mg/kg (serum cholesterol [4]; [8]) [%],further results
"O=C1NCc2ccccc2-c2ccccc21 [Compound 2, 3,4,5,6-dibenzohomopiperidin-2-one]",,,,response vs control in vivo at 20 mg/kg (serum cholesterol [1]; [5]): 84 ± 6%; response vs control in vivo at 20 mg/kg (serum cholesterol [1]; [6]): 49 ± 4%; response vs control in vivo at 20 mg/kg (serum triglycerides [2]): 73 ± 5%
"CN1Cc2ccccc2-c2ccccc2C1 [Compound 4, 2-methyl-3,4,5,6-dibenzohomo-piperidine]",,,,response vs control in vivo at 20 mg/kg (serum cholesterol [1]; [5]): 75 ± 6%; response vs control in vivo at 20 mg/kg (serum cholesterol [1]; [6]): 61 ± 5%; response vs control in vivo at 20 mg/kg (serum triglycerides [2]): 66 ± 6%
"CCN1Cc2ccccc2-c2ccccc2C1 [Compound 5, 2-ethyl-3,4,5,6-dibenzohomopiperidine]",,,,response vs control in vivo at 20 mg/kg (serum cholesterol [1]; [5]): 67 ± 5%; response vs control in vivo at 20 mg/kg (serum cholesterol [1]; [6]): 59 ± 4%; response vs control in vivo at 20 mg/kg (serum triglycerides [2]): 60 ± 4%
"CCCN1Cc2ccccc2-c2ccccc2C1 [Compound 6, 2-propyl-3,4,5,6-dibenzohomopiperidine]",,,,response vs control in vivo at 20 mg/kg (serum cholesterol [1]; [5]): 78 ± 6%; response vs control in vivo at 20 mg/kg (serum cholesterol [1]; [6]): 65 ± 5%; response vs control in vivo at 20 mg/kg (serum triglycerides [2]): 73 ± 6%
"CCCCN1Cc2ccccc2-c2ccccc2C1 [Compound 7, 2-butyl-3,4,5,6-dibenzohomopiperidine]",,,,response vs control in vivo at 20 mg/kg (serum cholesterol [1]; [5]): 82 ± 7%; response vs control in vivo at 20 mg/kg (serum cholesterol [1]; [6]): 59 ± 6%; response vs control in vivo at 20 mg/kg (serum triglycerides [2]): 52 ± 7%
"CCCCCN1Cc2ccccc2-c2ccccc2C1 [Compound 8, 2-pentyl-3,4,5,6-dibenzohomopiperidine]",,,,response vs control in vivo at 20 mg/kg (serum cholesterol [1]; [5]): 71 ± 6%; response vs control in vivo at 20 mg/kg (serum cholesterol [1]; [6]): 67 ± 5%; response vs control in vivo at 20 mg/kg (serum triglycerides [2]): 71 ± 4%
"CC(=O)CCN1Cc2ccccc2-c2ccccc2C1 [Compound 9, 2-(3-Oxobutyl)-3,4,5,6-Dibenzohomopiperidine]",,,,response vs control in vivo at 20 mg/kg (serum cholesterol [1]; [5]): 69 ± 8%; response vs control in vivo at 20 mg/kg (serum cholesterol [1]; [6]): 56 ± 7%; response vs control in vivo at 20 mg/kg (serum triglycerides [2]): 45 ± 5%
"Cn1c(=O)c2ccccc2c2ccccc2c1=O [Compound 10, N-methyldiphenimide]",67 ± 6,64 ± 7,63 ± 5,
"CCn1c(=O)c2ccccc2c2ccccc2c1=O [Compound 11, N-ethyldiphenimide]",66 ± 7,64 ± 6,62 ± 5,
"CCCn1c(=O)c2ccccc2c2ccccc2c1=O [Compound 12, N-propyldiphenimide]",57 ± 5,69 ± 7,66 ± 6,
"CCCCn1c(=O)c2ccccc2c2ccccc2c1=O [Compound 13, N-butyldiphenimide]",52 ± 5,78 ± 7,77 ± 10,
"CCCCCn1c(=O)c2ccccc2c2ccccc2c1=O [Compound 14, N-pentyldiphenimide]",60 ± 5,90 ± 8,69 ± 4,
"O=c1c2ccccc2c2ccccc2c(=O)n1Cc1ccccc1 [Compound 15, N-benzyldiphenimide]",77 ± 7,91 ± 7,61 ± 6,
"CC(=O)CCn1c(=O)c2ccccc2c2ccccc2c1=O [Compound 16, N-(3-Oxobutyl)-Diphenimide]",90 ± 4,77 ± 5,77 ± 7,
"O=C(O)CCn1c(=O)c2ccccc2c2ccccc2c1=O [Compound 17, N-(2-Carboxyethyl)-Diphenimide]",75 ± 10,88 ± 11,84 ± 6,
"O=c1c2ccccc2c2ccccc2c(=O)n1-c1ccccc1 [Compound 18, N-phenyldiphenimide]",62 ± 6,97 ± 8,67 ± 6,

Structure (SMILES),response vs control in vivo at 20 mg/kg (serum triglycerides [3]) [%],response vs control in vivo at 20 mg/kg (serum cholesterol [4]; [7]) [%],response vs control in vivo at 20 mg/kg (serum cholesterol [4]; [8]) [%],further results
"COc1ccccc1-n1c(=O)c2ccccc2c2ccccc2c1=O [Compound 19, N-(2-methoxy)-phenyldiphenimide]",68 ± 5,80 ± 8,67 ± 5,
"COc1cccc(-n2c(=O)c3ccccc3c3ccccc3c2=O)c1 [Compound 20, N-(3-methoxy)phenyldiphenimide]",72 ± 8,84 ± 7,74 ± 7,
"COc1ccc(-n2c(=O)c3ccccc3c3ccccc3c2=O)cc1 [Compound 21, N-(4-methoxy)-phenyldiphenimide]",74 ± 6,91 ± 7,84 ± 8,
"Cc1ccccc1-n1c(=O)c2ccccc2c2ccccc2c1=O [Compound 22, N-(2-methyl)-phenyldiphenimide]",65 ± 6,78 ± 7,61 ± 6,
"Cc1cccc(-n2c(=O)c3ccccc3c3ccccc3c2=O)c1 [Compound 23, N-(3-methyl)-phenyldiphenimide]",63 ± 6,78 ± 7,76 ± 7,
"Cc1ccc(-n2c(=O)c3ccccc3c3ccccc3c2=O)cc1 [Compound 24, N-(4-methyl)-phenyldiphenimide]",60 ± 7,57 ± 7,52 ± 6,
"CCc1ccccc1-n1c(=O)c2ccccc2c2ccccc2c1=O [Compound 25, N-(2-ethyl)phenyldiphenimide]",84 ± 7,82 ± 8,73 ± 6,
"CCc1cccc(-n2c(=O)c3ccccc3c3ccccc3c2=O)c1 [Compound 26, N-(3-ethyl)-phenyldiphenimide]",66 ± 6,95 ± 7,77 ± 7,
"CCc1ccc(-n2c(=O)c3ccccc3c3ccccc3c2=O)cc1 [Compound 27, N-(4-ethyl)-phenyldiphenimide]",70 ± 7,101 ± 8,71 ± 5,
"O=c1c2ccccc2c2ccccc2c(=O)n1-c1ccccc1Cl [Compound 28, N-(2-chloro)-phenyldiphenimide]",65 ± 6,67 ± 6,64 ± 5,
"O=c1c2ccccc2c2ccccc2c(=O)n1-c1cccc(Cl)c1 [Compound 29, N-(3-chloro)-phenyldiphenimide]",87 ± 7,81 ± 8,78 ± 8,
"O=c1c2ccccc2c2ccccc2c(=O)n1-c1ccc(Cl)cc1 [Compound 30, N-(4-chloro)phenyldiphenimide]",64 ± 4,74 ± 6,67 ± 5,
"CC(=O)c1ccccc1-n1c(=O)c2ccccc2c2ccccc2c1=O [Compound 31, N-(2-acetyl)-phenyldiphenimide]",58 ± 6,79 ± 7,76 ± 6,
"CC(=O)c1cccc(-n2c(=O)c3ccccc3c3ccccc3c2=O)c1 [Compound 32, N-(3-acetyl)-phenyldiphenimide]",58 ± 4,77 ± 8,68 ± 6,
"CC(=O)c1ccc(-n2c(=O)c3ccccc3c3ccccc3c2=O)cc1 [Compound 33, N-(4-acetyl)-diphenimide]",70 ± 5,80 ± 5,73 ± 5,
"CCOC(=O)C(C)(C)Oc1ccc(Cl)cc1 [Compound C2, clofibrate, reference compound]",,,,response vs control in vivo at 150 mg/kg (serum cholesterol [1]; [5]): 88 ± 7%; response vs control in vivo at 150 mg/kg (serum cholesterol [1]; [6]): 87 ± 5%; response vs control in vivo at 150 mg/kg (serum triglycerides [2]; 150 mg/kg/day ip): 75 ± 5%
